Measured values: US4810636A, “Chromogenic acridinone enzyme substrates” (Miles Inc., priority 1987, dated 1989)
Values joined by “and” are separate entries in the source; they are usually repeats but may differ in a detail not shown here. Equal entries are not always repeated.

Key:
[1] = Visible absorbance (λmax, extinction coefficient) of substrate and chromogen; type: physicochemical; settings: for absorbance (λmax): uncleaved substrate or protonated chromogen
Description: (§1) According to a preferred embodiment of the present invention, chromogenic enzyme substrate compounds of the general formula (8), where Y is a radical of an enzyme-specific sugar moiety Y--OH, preferably β-D-galactose or β-D-glucose, and R and R' are methyl, can be prepared by reacting the dimethyl chromogen (20) with a 1-halogeno-derivative of the enzyme-specific moiety, preferably a 1-bromo-derivative thereof, substituted at the hydroxy-positions thereof with protecting groups, preferably acetate protecting groups, to result in per-O-substituted derivatives which can be hydrolyzed to remove such protecting groups to obtain the desired chromogenic enzyme substrate compound. For example, the β-D-galactoside of (20), the chromogenic enzyme substrate (8) where Y is the radical of β-D-galactose and R and R' are methyl, can be prepared for use in the determination of β-D-galactosidase. In particular, the dimethyl acridinone chromogen (20), where R and R' are methyl in the general formula (2), is reacted with acetobromogalactose and silver oxide in ethyl acetate/quinoline to prepare the 7-(tetra-O-acetyl-β-D-galactopyranosyloxy)-9,9-dimethyl-9H-acridin-2-one (31) of the formula: [drawing 13] The acetate protecting groups of (31) are then hydrolyzed with sodium methoxide in methanol to result in the desired 7-β-D-galactopyranosyloxy-9,9-dimethyl-9H-acridin-2-one (32) of the present invention of the formula: [drawing 14] The resulting galactoside (32) has an absorbance (λmax) of 438 nm (yellow), an extinction coefficient of 27,400, and is soluble in a phosphate buffered solution (pH 7.4).
(§2) (C), 2462 (1970), where R and R' in the general formula (2) are methyl.

[2] = Solubility and stability in aqueous buffered / basic solution; type: physicochemical
Description: as §1, with “The acetate protecting groups of (31) are then hydrolyzed with sodium methoxide in methanol to result in the desired 7-β-D-galactopyranosyloxy-9,9-dimethyl-9H-acridin-2-one (32) of the present invention of the formula: [drawing 14]” left out, “7.4). […]” for “7.4).”

[3] = Phenolic pKa of the chromogen; type: physicochemical
Description: as §2

α-amylase [4] = assay: Liquid analytical test system for the detection of α-amylase; type: biochemical; settings: for Absorbance (634 nm): 37° C.; for Absorbance/Minute: average of three consecutive readings between 3 and 6 minutes
Procedure: A liquid α-amylase detection reagent was prepared by combining 1.8 mM DMA-G7 (43) prepared according to Example 9, 38 units of α-glucosidase and 20 units of β-glucosidase in 1.0 mL of buffered solution comprising 50 mM PIPES, 50 mM NaCl, and 5.0 mM calcium chloride (pH 7.0). Amylase control serum (0.025 mL) containing 37 IU/L, 175 IU/L, and 313 IU/L, respectively, of α-amylase were added to the detection reagent, independently, and incubated at 37° C. The enzymatic action of α-amylase on the substrate compound in each of the mixtures liberated shorter chain chromogenic maltooligosaccharide compounds thereof (e.g., DMA-G2 to DMA-G4) which, in turn, was enzymatically acted upon by the α-glucosidase and β-glucosidaseto liberate the optically active form of the dimethyl acridinone chromogen (20). The rate of color change produced by the liberated chromogen in each of the mixtures was measured at 634 nm on a Cary 219 spectrophotometer (Varian Associates, Inc., Sonnyvale, Calif., U.S.A.) from between 1 and 9 minutes after each of the serum samples were added to the detection reagent (Table 2).

α-amylase [5] = assay: Analytical test device for the detection of α-amylase, reflectance; type: biochemical; settings: for Reactivity × 10^-2: linear regression of L(R) between 180 and 200 seconds, 630 nm
Procedure: A sheet of Whatman 54 filter paper (Whatman, Inc., Clifton, N.J., U.S.A.) was immersed into a solution comprising the liquid α-amylase detection reagent prepared according to Example 10, 0.1% Triton X-100 (Sigma Chemical Co., St. Louis, Mo., U.S.A.) and 0.5% carboxycellulose, and dried.
Analytical test devices were prepared by mounting 0.5 cm wide×1.0 cm long segment of the aforementioned impregnated filter paper onto and along the edge of one surface of 0.5 cm×8.125 cm polystyrene supports (Tricite®, Dow Chemical Co., Midland, Mich., U.S.A.) previously laminated with a 2 mm strip of Double Stick® double-faced adhesive tape (3M Company, St. Paul, Minn., U.S.A.).
Three 30 μL aliquots of undiluted serum containing 39 IU/L, 78 IU/L, 117 IU/L, 157 IU/L, 235 IU/L, and 313 IU/L, respectively, of α-amylase were applied, independently, to a test device and the rate of color change produced by the liberated chromogen on each device was measured at 630 nm on a Seralyzer® reflectance photometer (Miles Inc., Elkhart, Ind., U.S.A.) from between 0 seconds and 240 seconds after the serum sample was added to each test device.

β-D-galactosidase [6] = target: T1, β-D-galactosidase (Escherichia coli, UniProt P00722); assay: Hydrolysis of the galactoside substrate by β-D-galactosidase (Kcat, Km); type: biochemical; settings: 50 mM phosphate buffered solution (pH 7.4) containing 5 mM MgCl2
T1 sequence (P00722 2-1024): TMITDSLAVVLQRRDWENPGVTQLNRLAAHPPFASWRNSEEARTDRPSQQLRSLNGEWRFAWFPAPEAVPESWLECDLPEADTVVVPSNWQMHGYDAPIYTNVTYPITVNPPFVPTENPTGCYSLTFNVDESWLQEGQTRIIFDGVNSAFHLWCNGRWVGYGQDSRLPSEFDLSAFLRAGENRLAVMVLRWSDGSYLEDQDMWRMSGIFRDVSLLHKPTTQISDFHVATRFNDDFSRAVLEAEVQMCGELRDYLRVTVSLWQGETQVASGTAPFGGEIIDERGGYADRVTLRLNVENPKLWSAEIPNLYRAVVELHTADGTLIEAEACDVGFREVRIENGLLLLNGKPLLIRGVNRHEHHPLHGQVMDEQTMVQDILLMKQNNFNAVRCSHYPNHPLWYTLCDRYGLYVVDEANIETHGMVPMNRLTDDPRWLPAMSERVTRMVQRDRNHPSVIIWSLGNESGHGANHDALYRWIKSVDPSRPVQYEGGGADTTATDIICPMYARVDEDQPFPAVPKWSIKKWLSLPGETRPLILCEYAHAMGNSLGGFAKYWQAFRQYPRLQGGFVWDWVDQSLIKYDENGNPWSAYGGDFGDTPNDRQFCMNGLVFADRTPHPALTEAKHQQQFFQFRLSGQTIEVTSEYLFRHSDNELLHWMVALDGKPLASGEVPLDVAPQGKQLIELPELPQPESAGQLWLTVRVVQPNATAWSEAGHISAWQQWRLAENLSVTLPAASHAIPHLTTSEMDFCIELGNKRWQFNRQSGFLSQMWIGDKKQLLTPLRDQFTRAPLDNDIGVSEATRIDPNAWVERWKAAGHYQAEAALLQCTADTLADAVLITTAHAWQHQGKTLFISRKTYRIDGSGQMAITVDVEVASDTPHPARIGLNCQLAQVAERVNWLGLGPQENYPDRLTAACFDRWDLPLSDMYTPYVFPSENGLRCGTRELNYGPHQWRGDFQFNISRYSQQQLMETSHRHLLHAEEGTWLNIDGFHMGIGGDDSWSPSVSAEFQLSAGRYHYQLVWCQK
Description: as §1, with “The acetate protecting groups of (31) are then hydrolyzed with sodium methoxide in methanol to result in the desired 7-β-D-galactopyranosyloxy-9,9-dimethyl-9H-acridin-2-one (32) of the present invention of the formula: [drawing 14]” left out

β-D-galactosidase [7] = target: T1, β-D-galactosidase; assay: Analytical test device for β-D-galactosidase, reflectance dose response; type: biochemical; settings: 0.02-0.20 ng/ml β-D-galactosidase, reflectance at 630 nm after 50-70 seconds
Procedure: A 2 inch wide×2 inch long sheet of Whatman 54 filter paper (Whatman, Inc., Clifton, N.J., U.S.A.) was immersed in an aqueous solution comprising 0.3M bicine buffer (pH 7.9) and 4.0 mM MgCl2 and air-dried overnight at room temperature. The filter paper was then immersed in a methanol solution containing 15 mM of the substrate product (32) from Example 3 and air-dried for one hour at room temperature to obtain a filter paper which was yellow in color.
A 0.5 cm wide×1.0 cm long segment of the above-described impregnated yellow filter paper was mounted onto and along the edge of one surface of a 0.5 cm×8.125 cm polystyrene support (Tricite®, Dow Chemical Co., Midland, Mich., U.S.A.) previously laminated with a 2 mm strip of Double Stick® double-faced adhesive tape (3M Company, St. Paul, Minn., U.S.A.) for use as an analytical test device for the detection of β-D-galactosidase from a liquid test sample.
Ten analytical test devices were prepared according to Example 4 and employed to determine the dose response of the substrate product compound (32) of the present invention to β-D-galactosidase.
[…] aqueous test sample solutions containing β-D-galactosidase concentrations of 0.02 ng/ml, 0.04 ng/ml, 0.06 ng/ml, 0.08 ng/ml, 0.12 ng/ml, 0.14 ng/ml, 0.16 ng/ml, 0.18 ng/ml and 0.20 ng/ml were prepared and an analytical test device dipped into each.

alkaline phosphatase = assay: Hydrolysis of the phosphate substrate by alkaline phosphatase (KM, Kcat); type: biochemical; settings: 1.0M diethanolamine buffer (pH=9.8) containing 5.0 mM MgCl2

With `CC1(C)C2=CC(=O)C=CC2=Nc2ccc(O)cc21` [Compound 20, 7-hydroxy-9,9-dimethyl-9H-acridin-2-one, reference compound] the “shift in the absorbance maximum on deprotonation” value [1] was 176 nm, the “absorbance of the deprotonated anion” value ([1]; deprotonated chromogen) was 635 nm and the “extinction coefficient of the anion” value ([1]; pH=10, in M-1 cm-1 (unit assumed)) was 53,100. For the same compound, the “absorbance (λmax)” value [1] was 459 nm, the solubility and stability ([2]; aqueous, basic solutions) was “soluble and stable” and the “phenolic pKa” value [3] was 7.1.

For `CC1(C)C2=CC(=O)C=CC2=Nc2ccc(O[C@@H]3O[C@H](CO)[C@@H](O[C@H]4O[C@H](CO)[C@@H](O[C@H]5O[C@H](CO)[C@@H](O[C@H]6O[C@H](CO)[C@@H](O[C@H]7O[C@H](CO)[C@@H](O[C@H]8O[C@H](CO)[C@@H](O[C@H]9O[C@H](CO)[C@@H](O)[C@H](O)[C@H]9O)[C@H](O)[C@H]8O)[C@H](O)[C@H]7O)[C@H](O)[C@H]6O)[C@H](O)[C@H]5O)[C@H](O)[C@H]4O)[C@H](O)[C@H]3O)cc21` [DMA-G7, 7-β-maltoheptaosyloxy-9,9-dimethyl-acridin-2-one], the “dose response to the α-amylase concentration” value (α-amylase [4]; 37-313 IU/L, readings between 3 and 6 minutes) was “linear dose response”, the “Absorbance (634 nm)” value (α-amylase [4]; 37 IU/L α-amylase, 1 minute) was 0.123 and the “Absorbance (634 nm)” value (α-amylase [4]; 37 IU/L α-amylase, 2 minutes) was 0.129. The “Absorbance (634 nm)” value (α-amylase [4]; 37 IU/L α-amylase, 3 minutes) was 0.138, the “Absorbance (634 nm)” value (α-amylase [4]; 37 IU/L α-amylase, 4 minutes) was 0.148 and the “Absorbance (634 nm)” value (α-amylase [4]; 37 IU/L α-amylase, 5 minutes) was 0.160. For the same compound, the “Absorbance (634 nm)” value (α-amylase [4]; 37 IU/L α-amylase, 6 minutes) was 0.172, the “Absorbance (634 nm)” value (α-amylase [4]; 37 IU/L α-amylase, 7 minutes) was 0.187 and the “Absorbance (634 nm)” value (α-amylase [4]; 37 IU/L α-amylase, 8 minutes) was 0.202. For the same compound, the “Absorbance (634 nm)” value (α-amylase [4]; 37 IU/L α-amylase, 9 minutes) was 0.218, the Absorbance/Minute (α-amylase [4]; 37 IU/L α-amylase) was 0.011 and the “Absorbance (634 nm)” value (α-amylase [4]; 175 IU/L α-amylase, 1 minute) was 0.150. The “Absorbance (634 nm)” value (α-amylase [4]; 175 IU/L α-amylase, 2 minutes) was 0.178, the “Absorbance (634 nm)” value (α-amylase [4]; 175 IU/L α-amylase, 3 minutes) was 0.223 and the “Absorbance (634 nm)” value (α-amylase [4]; 175 IU/L α-amylase, 4 minutes) was 0.279. For the same compound, the “Absorbance (634 nm)” value (α-amylase [4]; 175 IU/L α-amylase, 5 minutes) was 0.341, the “Absorbance (634 nm)” value (α-amylase [4]; 175 IU/L α-amylase, 6 minutes) was 0.409 and the “Absorbance (634 nm)” value (α-amylase [4]; 175 IU/L α-amylase, 7 minutes) was 0.481. The “Absorbance (634 nm)” value (α-amylase [4]; 175 IU/L α-amylase, 8 minutes) was 0.555, the “Absorbance (634 nm)” value (α-amylase [4]; 175 IU/L α-amylase, 9 minutes) was 0.631 and the Absorbance/Minute (α-amylase [4]; 175 IU/L α-amylase) was 0.062. The “Absorbance (634 nm)” value (α-amylase [4]; 313 IU/L α-amylase, 1 minute) was 0.171, the “Absorbance (634 nm)” value (α-amylase [4]; 313 IU/L α-amylase, 2 minutes) was 0.212 and the “Absorbance (634 nm)” value (α-amylase [4]; 313 IU/L α-amylase, 3 minutes) was 0.282. The “Absorbance (634 nm)” value (α-amylase [4]; 313 IU/L α-amylase, 4 minutes) was 0.372, the “Absorbance (634 nm)” value (α-amylase [4]; 313 IU/L α-amylase, 5 minutes) was 0.474 and the “Absorbance (634 nm)” value (α-amylase [4]; 313 IU/L α-amylase, 6 minutes) was 0.585. For the same compound, the “Absorbance (634 nm)” value (α-amylase [4]; 313 IU/L α-amylase, 7 minutes) was 0.702, the “Absorbance (634 nm)” value (α-amylase [4]; 313 IU/L α-amylase, 8 minutes) was 0.823 and the “Absorbance (634 nm)” value (α-amylase [4]; 313 IU/L α-amylase, 9 minutes) was 0.948. For the same compound, the Absorbance/Minute (α-amylase [4]; 313 IU/L α-amylase) was 0.109, the “dose response to α-amylase” value (α-amylase [5]; 39-313 IU/L α-amylase in undiluted serum) was “linear dose response” and the “Reactivity × 10^-2” value (α-amylase [5]; 39 IU/L α-amylase serum) was 0.384 × 10^-2 and 0.373 × 10^-2 and 0.359 × 10^-2. For the same compound, the “Reactivity × 10^-2” value (α-amylase [5]; 78 IU/L α-amylase serum) was 0.957 × 10^-2 and 0.941 × 10^-2 and 0.954 × 10^-2, the “Reactivity × 10^-2” value (α-amylase [5]; 117 IU/L α-amylase serum) was 1.450 × 10^-2 and 1.510 × 10^-2 and 1.430 × 10^-2 and the “Reactivity × 10^-2” value (α-amylase [5]; 157 IU/L α-amylase serum) was 1.781 × 10^-2 and 1.999 × 10^-2 and 1.886 × 10^-2. The “Reactivity × 10^-2” value (α-amylase [5]; 235 IU/L α-amylase serum) was 2.560 × 10^-2 and 2.596 × 10^-2 and 2.610 × 10^-2 and the “Reactivity × 10^-2” value (α-amylase [5]; 313 IU/L α-amylase serum) was 2.961 × 10^-2 and 2.989 × 10^-2 and 2.916 × 10^-2.

With `CC1(C)C2=CC(=O)C=CC2=Nc2ccc(O[C@@H]3O[C@H](CO)[C@H](O)[C@H](O)[C@H]3O)cc21` [Compound 32, 7-β-D-galactopyranosyloxy-9,9-dimethyl-9H-acridin-2-one] the “rate at which the enzyme cleaves the substrate (Kcat)” value (β-D-galactosidase [6]) was 1.32×10^4 mol. min.^-1 /mol. active site, the Km (β-D-galactosidase [6]; read-out: binding constant (Km)) was 170 µM and the “change in absorbance between substrate and liberated chromogen anion” value [1] was 196 nm. For the same compound, the “absorbance of the liberated chromogen anion” value ([1]; after hydrolysis by β-D-galactosidase, phosphate buffered solution) was 634 nm, the “absorbance (λmax)” value [1] was 438 nm and the extinction coefficient ([1]; uncleaved substrate, at 438 nm, in M-1 cm-1 (unit assumed)) was 27,400. The solubility ([2]; phosphate buffered solution (pH 7.4)) was “soluble” and the “dose response of reflectance to β-D-galactosidase” value (β-D-galactosidase [7]) was “linear dose response”.

In the case of `CC1(C)C2=CC(=O)C=CC2=Nc2ccc(OP(=O)(O)O)cc21` [Compound 37, disodium-9,9-dimethyl-9H-acridin-2-one-7-phosphate], the Kcat (alkaline phosphatase) is reported as 1.94×10^5 mol/min/mol of enzyme and the Km (alkaline phosphatase) is reported as 480 µM.
